*1 amine or outer side, *2 acyl side, *3 side chain or, on linkers, in order; H or OH if unused. Where a SMILES comes first, the peptide text is derived from it. Bridges are numbered along the chain shown (N, C = ends). [ ]: non-standard residue; d: D form. X1 = O=C(O)CCCCCCCCCCCCCCCCCCC(=O)N[C@@H](CCC(=O)NCCOCCOCC(=O)NCCOCCOCC(=O)N[C@@H](CCC(=O)[*:1])C(=O)[*:2])C(=O)O; Aib = CC(C)(N)C(=O)O
What was measured:
[1] = target: T1, GLP-1R (Homo sapiens, UniProt P43220); experiment: In vitro GLP-1R agonistic activity test (cAMP kit); type: cell-based; settings: HEK293 host cells
T1 construct: host or cells: HEK293
T1 sequence (P43220 24-463, species assumed): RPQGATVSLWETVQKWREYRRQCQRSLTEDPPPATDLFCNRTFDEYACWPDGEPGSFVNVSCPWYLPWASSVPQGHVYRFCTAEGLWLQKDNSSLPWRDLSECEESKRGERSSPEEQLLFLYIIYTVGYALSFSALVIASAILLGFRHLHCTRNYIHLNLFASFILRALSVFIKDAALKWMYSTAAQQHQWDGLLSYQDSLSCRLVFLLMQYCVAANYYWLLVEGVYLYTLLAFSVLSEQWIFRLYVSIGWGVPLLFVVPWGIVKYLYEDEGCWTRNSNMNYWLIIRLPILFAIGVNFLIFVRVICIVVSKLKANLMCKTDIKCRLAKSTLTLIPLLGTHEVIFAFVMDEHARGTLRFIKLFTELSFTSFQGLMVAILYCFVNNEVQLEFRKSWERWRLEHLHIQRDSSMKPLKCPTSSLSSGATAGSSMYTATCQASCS
Description: (§1) The cell lines were constructed by Wuxi […] (Shanghai) Co., Ltd. See details in Table 1 below. [table] [table] The test compounds were diluted at a 4-fold dilution factor in 10 points, starting from an initial concentration of 30 μM. The dilution was carried out by Bravo. • 1) 100 nL of compounds were transferred to an OptiPlate-384 plate by Echo. • 2) The OptiPlate-384 plate was centrifuged at 1000 rpm for 5 s. • 1) A GLP-1R/GIPR cell cryovial was placed in warm water at 37° C. for rapid thawing. • 2) The cell suspension was transferred into a 15 mL Transfer centrifugal tube and rinsed with 10 mL of HBSS gently. • 3) The centrifugal tube was centrifuged at 1000 rpm at room temperature for 1 min. • 4) The supernatant was discarded. • 5) The bottom cells were gently dispersed, then gently rinsed with 10 mL of HBSS, the centrifugal tube was centrifuged to settle the cells, and finally the cells were resuspended in an experimental buffer. • 6) Cell density and viability were measured by Vi-cell. • 7) The GLP-1R/GIPR cells were diluted with the experimental buffer to a concentration of 2.0*10^5/mL. • 8) […] of the diluted cell suspension was transferred into the OptiPlate-384 plate. • 9) Incubation was performed at room temperature for 30 min. • 1) 10 μL of 800 nM gradient diluted cAMP standard was added into the empty wells of the OptiPlate-384 plate. • 2) 10 μL of cAMP assay reagent was added. • 3) The OptiPlate-384 plate was covered with TopSeal-A film and incubated at room temperature for 60 min. The TopSeal-A film was removed, and readout was performed on En Vision.

[2] = target: T2, GIPR (Homo sapiens, UniProt P48546); experiment: In vitro GIPR agonistic activity test (cAMP kit); type: cell-based; settings: CHO host cells
T2 construct: host or cells: CHO
T2 sequence (P48546 22-466): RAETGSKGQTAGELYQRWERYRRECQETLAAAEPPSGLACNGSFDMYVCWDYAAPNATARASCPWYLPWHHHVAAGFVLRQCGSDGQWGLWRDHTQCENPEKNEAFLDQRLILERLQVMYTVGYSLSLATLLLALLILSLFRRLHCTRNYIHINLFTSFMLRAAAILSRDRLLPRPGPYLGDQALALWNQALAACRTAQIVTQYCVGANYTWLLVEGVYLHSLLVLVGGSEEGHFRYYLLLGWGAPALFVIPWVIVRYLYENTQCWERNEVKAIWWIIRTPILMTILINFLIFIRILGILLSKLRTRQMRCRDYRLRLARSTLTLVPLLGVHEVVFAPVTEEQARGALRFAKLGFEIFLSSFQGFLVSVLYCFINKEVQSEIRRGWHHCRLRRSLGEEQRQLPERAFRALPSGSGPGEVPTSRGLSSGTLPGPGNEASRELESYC
Description: as §1, with “[table] [table]” left out

Row | SMILES | EC50 ([1]; with 1% HSA) | EC50 ([1]; without 1% HSA) | EC50 ([2]; with 1% HSA) | EC50 ([2]; without 1% HSA)
1 | CC[C@H](C)[C@H](NC(=O)[C@H](CC(C)C)NC(=O)[C@H](Cc1c[nH]c2ccccc12)NC(=O)[C@H](CCC(=O)O)NC(=O)[C@@H](NC(=O)[C@H](Cc1ccccc1)NC(=O)[C@H](C)NC(=O)[C@@H]1CCCCNC(=O)[C@@H](NC(=O)COCCOCCNC(=O)COCCOCCNC(=O)CC[C@H](NC(=O)CCCCCCCCCCCCCCCCCCC(=O)O)C(=O)O)CCC(=O)NCCCC[C@H](NC(=O)[C@H](CCCCN)NC(=O)[C@H](CC(=O)O)NC(=O)[C@H](CC(C)C)NC(=O)C(C)(C)NC(=O)[C@@H](NC(=O)[C@H](CO)NC(=O)[C@H](Cc2ccc(O)cc2)NC(=O)[C@H](CC(=O)O)NC(=O)[C@H](CO)NC(=O)[C@@H](NC(=O)[C@H](Cc2ccccc2)NC(=O)[C@@H](NC(=O)CNC(=O)[C@H](CCC(=O)O)NC(=O)C(C)(C)NC(=O)[C@@H](N)Cc2ccc(O)cc2)[C@@H](C)O)[C@@H](C)O)[C@@H](C)CC)C(=O)N[C@@H](C)C(=O)N[C@@H](CCC(N)=O)C(=O)N1)C(C)C)C(=O)N[C@@H](C)C(=O)NCC(=O)NCC(=O)N1CCC[C@H]1C(=O)N[C@@H](CO)C(=O)N[C@@H](CO)C(=O)NCC(=O)N[C@@H](C)C(=O)N1CCC[C@H]1C(=O)N1CCC[C@H]1C(=O)N1CCC[C@H]1C(=O)N[C@@H](CO)C(N)=O [WX-011] (H-Y[Aib]EGTFTSDYSI[Aib]LDKKAQKAFVEWLIAGGPSSGAPPPS-NH2; linker 17-20 via X1) |  | 0.018 nM |  | 0.25 nM
2 | CC[C@H](C)[C@H](NC(=O)[C@H](CC(C)C)NC(=O)[C@H](Cc1c[nH]c2ccccc12)NC(=O)[C@H](CCC(=O)O)NC(=O)[C@@H](NC(=O)[C@H](Cc1ccccc1)NC(=O)[C@H](C)NC(=O)[C@@H]1CCCCNC(=O)CN(C(=O)COCCOCCNC(=O)COCCOCCNC(=O)CC[C@H](NC(=O)CCCCCCCCCCCCCCCCC(=O)O)C(=O)O)CC(=O)NCCCC[C@H](NC(=O)[C@H](CCCCN)NC(=O)[C@H](CC(=O)O)NC(=O)[C@H](CC(C)C)NC(=O)C(C)(C)NC(=O)[C@@H](NC(=O)[C@H](CO)NC(=O)[C@H](Cc2ccc(O)cc2)NC(=O)[C@H](CC(=O)O)NC(=O)[C@H](CO)NC(=O)[C@@H](NC(=O)[C@H](Cc2ccccc2)NC(=O)[C@@H](NC(=O)CNC(=O)[C@H](CCC(=O)O)NC(=O)C(C)(C)NC(=O)[C@@H](N)Cc2ccc(O)cc2)[C@@H](C)O)[C@@H](C)O)[C@@H](C)CC)C(=O)N[C@@H](C)C(=O)N[C@@H](CCC(N)=O)C(=O)N1)C(C)C)C(=O)N[C@@H](C)C(=O)NCC(=O)NCC(=O)N1CCC[C@H]1C(=O)N[C@@H](CO)C(=O)N[C@@H](CO)C(=O)NCC(=O)N[C@@H](C)C(=O)N1CCC[C@H]1C(=O)N1CCC[C@H]1C(=O)N1CCC[C@H]1C(=O)N[C@@H](CO)C(N)=O [WX-012] |  | 0.024 nM |  | 0.17 nM
3 | CC[C@H](C)[C@H](NC(=O)[C@H](CC(C)C)NC(=O)[C@H](Cc1c[nH]c2ccccc12)NC(=O)[C@H](CCC(N)=O)NC(=O)[C@@H](NC(=O)[C@H](Cc1ccccc1)NC(=O)[C@H](C)NC(=O)[C@@H]1CCCCNC(=O)CN(C(=O)COCCOCCNC(=O)COCCOCCNC(=O)CC[C@H](NC(=O)CCCCCCCCCCCCCCCCCCC(=O)O)C(=O)O)CC(=O)NCCCC[C@H](NC(=O)[C@H](CCCCN)NC(=O)[C@H](CC(=O)O)NC(=O)[C@H](CC(C)C)NC(=O)C(C)(C)NC(=O)[C@@H](NC(=O)[C@H](CO)NC(=O)[C@H](Cc2ccc(O)cc2)NC(=O)[C@H](CC(=O)O)NC(=O)[C@H](CO)NC(=O)[C@@H](NC(=O)[C@H](Cc2ccccc2)NC(=O)[C@@H](NC(=O)CNC(=O)[C@H](CCC(=O)O)NC(=O)C(C)(C)NC(=O)[C@@H](N)Cc2ccc(O)cc2)[C@@H](C)O)[C@@H](C)O)[C@@H](C)CC)C(=O)N[C@@H](C)C(=O)N[C@@H](CCC(N)=O)C(=O)N1)C(C)C)C(=O)N[C@@H](C)C(=O)NCC(=O)NCC(=O)N1CCC[C@H]1C(=O)N[C@@H](CO)C(=O)N[C@@H](CO)C(=O)NCC(=O)N[C@@H](C)C(=O)N1CCC[C@H]1C(=O)N1CCC[C@H]1C(=O)N1CCC[C@H]1C(=O)N[C@@H](CO)C(N)=O [WX-006] |  | 0.027 nM |  | 0.26 nM

More lines, now with the values ahead:

Row | EC50 ([1]; with 1% HSA) | EC50 ([1]; without 1% HSA) | EC50 ([2]; with 1% HSA) | EC50 ([2]; without 1% HSA) | SMILES
4 | 84.3 nM | 1.86 nM | 21.4 nM | 1.36 nM | CC[C@H](C)[C@H](NC(=O)[C@H](CC(C)C)NC(=O)[C@H](Cc1c[nH]c2ccccc12)NC(=O)[C@@H]1CCCCNC(=O)CN(C(=O)COCCOCCNC(=O)COCCOCCNC(=O)CC[C@H](NC(=O)CCCCCCCCCCCCCCCCCCC(=O)O)C(=O)O)CC(=O)NCCCC[C@H](NC(=O)[C@H](CCC(N)=O)NC(=O)[C@H](C)NC(=O)[C@@H](NC(=O)[C@H](CCCCN)NC(=O)[C@H](CC(=O)O)NC(=O)[C@H](CC(C)C)NC(=O)C(C)(C)NC(=O)[C@@H](NC(=O)[C@H](CO)NC(=O)[C@H](Cc2ccc(O)cc2)NC(=O)[C@H](CC(=O)O)NC(=O)[C@H](CO)NC(=O)[C@@H](NC(=O)[C@H](Cc2ccccc2)NC(=O)[C@@H](NC(=O)CNC(=O)[C@H](CCC(=O)O)NC(=O)C(C)(C)NC(=O)[C@@H](N)Cc2ccc(O)cc2)[C@@H](C)O)[C@@H](C)O)[C@@H](C)CC)[C@@H](C)CC)C(=O)N[C@@H](C)C(=O)N[C@@H](Cc2ccccc2)C(=O)N[C@@H](C(C)C)C(=O)N1)C(=O)N[C@@H](C)C(=O)NCC(=O)NCC(=O)N1CCC[C@H]1C(=O)N[C@@H](CO)C(=O)N[C@@H](CO)C(=O)NCC(=O)N[C@@H](C)C(=O)N1CCC[C@H]1C(=O)N1CCC[C@H]1C(=O)N1CCC[C@H]1C(=O)N[C@@H](CO)C(N)=O [WX-004]
5 | 31.3 nM | 0.19 nM | 12.5 nM | 0.43 nM | CC[C@H](C)[C@H](NC(=O)[C@H](CC(C)C)NC(=O)[C@H](Cc1c[nH]c2ccccc12)NC(=O)[C@@H]1CCCCNC(=O)CN(C(=O)COCCOCCNC(=O)COCCOCCNC(=O)CC[C@H](NC(=O)CCCCCCCCCCCCCCCCCCC(=O)O)C(=O)O)CC(=O)NCCCC[C@H](NC(=O)[C@H](CCC(N)=O)NC(=O)[C@H](C)NC(=O)[C@@H](NC(=O)[C@H](CCCCN)NC(=O)[C@H](CC(=O)O)NC(=O)[C@H](CC(C)C)NC(=O)C(C)(C)NC(=O)[C@@H](NC(=O)[C@H](CO)NC(=O)[C@H](Cc2ccc(O)cc2)NC(=O)[C@H](CC(=O)O)NC(=O)[C@H](CO)NC(=O)[C@@H](NC(=O)[C@H](Cc2ccccc2)NC(=O)[C@@H](NC(=O)CNC(=O)[C@H](CCC(=O)O)NC(=O)C(C)(C)NC(=O)[C@@H](N)Cc2ccc(O)cc2)[C@@H](C)O)[C@@H](C)O)[C@@H](C)CC)[C@@H](C)CC)C(=O)N[C@@H](CCC(=O)O)C(=O)N[C@@H](Cc2ccccc2)C(=O)N[C@@H](C(C)C)C(=O)N1)C(=O)N[C@@H](C)C(=O)NCC(=O)NCC(=O)N1CCC[C@H]1C(=O)N[C@@H](CO)C(=O)N[C@@H](CO)C(=O)NCC(=O)N[C@@H](C)C(=O)N1CCC[C@H]1C(=O)N1CCC[C@H]1C(=O)N1CCC[C@H]1C(=O)N[C@@H](CO)C(N)=O [WX-002]
